# Data reported in patent US11066414B2, “Cot modulators and methods of use thereof” (Gilead Sciences, Inc., priority 2015, dated 2021).
# Where two headings read alike, the source gives them in different places.
# Experiments:
# TNFα = assay: Cot Monocyte TNFα Cell Based Assay
# Human Cot = Human Cot (Homo sapiens (Human), UniProt P41279); assay: High Throughput Cot Biochemical Assay
# Protocol: Human Cot enzyme activity was measured using KinEASE (Cisbio), a time-resolved fluorescence resonance energy transfer (TR-FRET) immunoassay. In this assay, Cot-catalyzes the phosporylation of a XL665-labeled peptide substrate. Europium conjugated phospho-tyrosine specific antibody binds the resulting phosphorylated peptide. Formation of phosphorylated peptide is quantified by TR-FRET with Europium as the donor and XL665 the acceptor in a 2-step endpoint assay. […] In brief, test compounds serially diluted in DMSO were delivered into Proxy white, low volume, 384 well plates using the Echo 550 acoustic liquid dispenser (Labcyte®). Cot enzyme and substrates were dispensed into assay plates using a Multi-Flo (Bio-Tek Instruments). The standard 5 μL reaction mixture contained 400 μM ATP, 1 μM STK3 peptide, 5 nM of Cot in reaction buffer (10 mM MOPS, pH 7.0, 0.02% NaN3, 0.5 mg/mL BSA, 10 mM MgOAc, 1 mM DTT, 0.025% NP-40, 1.5% glycerol) and 0.1% DMSO.
# [1] = Homo sapiens, Monocyte, read-out: EC50 TNF, LPS-stimulated human monocytes, TNFα
# [2] = IC50 HTRF, Cot HTRF (TR-FRET) biochemical assay
# [3] = Homo sapiens, Monocyte, read-out: EC50 TNF, LPS-stimulated human monocytes, TNFα TR-FRET
# [4] = IC50 HTRF, Cot HTRF (TR-FRET KinEASE) biochemical assay, 400 μM ATP
# Sequence of Human Cot (P41279 30-397): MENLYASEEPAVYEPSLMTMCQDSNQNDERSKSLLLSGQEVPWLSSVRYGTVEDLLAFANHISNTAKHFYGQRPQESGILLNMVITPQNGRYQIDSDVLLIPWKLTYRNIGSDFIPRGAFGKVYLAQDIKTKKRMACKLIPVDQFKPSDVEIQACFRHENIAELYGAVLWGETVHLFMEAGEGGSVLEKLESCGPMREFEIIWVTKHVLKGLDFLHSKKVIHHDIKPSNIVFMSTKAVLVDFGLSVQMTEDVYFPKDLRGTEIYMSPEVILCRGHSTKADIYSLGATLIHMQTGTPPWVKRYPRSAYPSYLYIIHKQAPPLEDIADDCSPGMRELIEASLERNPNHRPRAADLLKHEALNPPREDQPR
SMILES,EC50 (TNFα; [1]),IC50 (Human Cot; [2]),also measured
"Cn1cnc([C@H](Nc2cc(Cl)c3ncc(C#N)c(Nc4ccc(F)c(Cl)c4)c3c2)c2cn(C3CCN(C(C)(C)C)CC3)nn2)c1 [Example 267, (S)-6-(((1-(1-(tert-butyl)piperidin-4-yl)-1H-1,2,3-triazol-4-yl)(1-methyl-1H-imidazol-4-yl)methyl)amino)-8-chloro-4-((3-chloro-4-fluorophenyl)-amino)quinoline-3-carbonitrile]",5120 nM,30 nM,–
"[2H]C([2H])([2H])C([2H])([2H])[C@@H](Nc1c(C#N)cnc2c(Cl)cc(N[C@@]([2H])(c3ccc(F)nc3)c3cn(C4CC4)nn3)cc12)c1ccccc1 [Example 106, 8-chloro-6-(((S)-(1-cyclopropyl-1H-1,2,3-triazol-4-yl)(6-fluoropyridin-3-yl)methyl-d)amino)-4-(((R)-1-phenylpropyl-2,2,3,3,3-d5)amino)-quinoline-3-carbonitrile]",76 nM,2 nM,–
"Cc1nc(F)ccc1[C@H](Nc1cc(Cl)c2ncc(C#N)c(NCC(C)(C)C)c2c1)c1cn(C2(C#N)CCC2)nn1 [Example 479, (S)-8-chloro-6-(((1-(1-cyanocyclobutyl)-1H-1,2,3-triazol-4-yl)(6-fluoro-2-methylpyridin-3-yl)methyl)amino)-4-(neopentylamino)quinoline-3-carbonitrile]",78 nM,5 nM,–
"Cc1nc(F)ccc1[C@H](Nc1cc(C#N)c2ncc(C#N)c(NCC(C)(C)C)c2c1)c1nnn(C2CC2)c1Cl [Example 680, (S)-6-(((5-chloro-1-cyclopropyl-1H-1,2,3-triazol-4-yl)(6-fluoro-2-methylpyridin-3-yl)methyl)amino)-4-(neopentylamino)quinoline-3,8-dicarbonitrile]",98 nM,3 nM,–
"CC(C)(C)n1cc([C@@H](Nc2cc(Cl)c3ncc(C#N)c(Nc4cnc(F)c(F)c4)c3c2)c2cccnc2)nn1 [Example 198, (S)-6-(((1-(tert-butyl)-1H-1,2,3-triazol-4-yl)(pyridin-3-yl)methyl)amino)-8-chloro-4-((5,6-difluoropyridin-3-yl)amino)quinoline-3-carbonitrile]",982 nM,17 nM,–
"Cc1c([C@H](Nc2cc(Cl)c3ncc(C#N)c(NCC(C)(C)C)c3c2)c2cn(C3(C(F)(F)F)CC3)nn2)ccnc1Cl [Example 938, (S)-8-chloro-6-(((2-chloro-3-methylpyridin-4-yl)(1-(1-(trifluoromethyl)cyclopropyl)-1H-1,2,3-triazol-4-yl)methyl)amino)-4-(neopentylamino)quinoline-3-carbonitrile]",–,–,EC50 (TNFα; [3]): 223 nM; IC50 (Human Cot; [4]): 26 nM
"CC(C)n1cc([C@@H](Nc2cc(Cl)c3ncc(C#N)c(Nc4ccc(F)c(Cl)c4)c3c2)c2csc3c2CCNC3)nn1 [Example 346, (S)-8-chloro-4-((3-chloro-4-fluorophenyl)amino)-6-(((1-isopropyl-1H-1,2,3-triazol-4-yl)(4,5,6,7-tetrahydrothieno[2,3-c]pyridin-3-yl)methyl)amino)quinoline-3-carbonitrile]",208 nM,3 nM,–
"[2H][C@](Nc1cc(Cl)c2ncc(C#N)c(NCC(C)(C)C)c2c1)(c1ccc(F)nc1)c1cn(C2CC2)nn1 [Example 142, (S)-8-chloro-6-(((1-cyclopropyl-1H-1,2,3-triazol-4-yl)(6-fluoropyridin-3-yl)methyl-d)amino)-4-(neopentylamino)quinoline-3-carbonitrile]",66 nM,2 nM,–
"[2H]C(Nc1cc(Cl)c2ncc(C#N)c(NC(CCC#N)c3ccccc3)c2c1)(c1ccc(F)nc1)c1cn(C2CC2)nn1 (stereo not shown) [Example 93, 8-chloro-4-((3-cyano-1-phenylpropyl)amino)-6-(((1-cyclopropyl-1H-1,2,3-triazol-4-yl)(6-fluoropyridin-3-yl)methyl-d)amino)quinoline-3-carbonitrile]",74 nM,7 nM,–
"CC(C)(C)CNc1c(C#N)cnc2c(Cl)cc(N[C@H](c3cn(C4CC4)nn3)c3cccc4ccncc34)cc12 [Example 504, (S)-8-chloro-6-(((1-cyclopropyl-1H-1,2,3-triazol-4-yl)(isoquinolin-8-yl)methyl)amino)-4-(neopentylamino)quinoline-3-carbonitrile]",38 nM,1 nM,–
"Cc1ncccc1[C@H](Nc1cc(Cl)c2ncc(C#N)c(NCC(C)(C)C)c2c1)c1cn(C2CC2)nn1 [Example 131, (S)-8-chloro-6-(((1-cyclopropyl-1H-1,2,3-triazol-4-yl)(2-methylpyridin-3-yl)methyl)amino)-4-(neopentyl-amino)quinoline-3-carbonitrile]",49 nM,2 nM,–
"Cn1ccc2c([C@H](Nc3cc(C#N)c4ncc(C#N)c(NCC(C)(C)C(F)(F)F)c4c3)c3cn(C4(C5CC5)CC4)nn3)cccc2c1=O [Example 882, (S)-6-(((1-([1,1′-bi(cyclopropan)]-1-yl)-1H-1,2,3-triazol-4-yl)(2-methyl-1-oxo-1,2-dihydroisoquinolin-5-yl)methyl)amino)-4-((3,3,3-trifluoro-2,2-dimethylpropyl)amino)quinoline-3,8-dicarbonitrile]",–,–,EC50 (TNFα; [3]): 18 nM; IC50 (Human Cot; [4]): 2 nM
"N#Cc1cnc2c(Cl)cc(N[C@@H](c3cocn3)c3c[nH]nn3)cc2c1N[C@H](CO)c1ccccc1 [Example 215, 8-chloro-4-(((S)-2-hydroxy-1-phenylethyl)amino)-6-(((S)-o)(azol-4-yl(1H-1,2,3-triazol-4-yl)methyl)amino)quinoline-3-carbonitrile]",–,–,"EC50 (TNFα; read-out: EC50 TNF, LPS-stimulated human monocytes, TNFα): > 10000 nM; IC50 (Human Cot; read-out: IC50 HTRF, Cot HTRF (TR-FRET) biochemical assay): 258 nM"
"COc1c([C@@H](Nc2cc(Cl)c3ncc(C#N)c(NCC(C)(C)C)c3c2)c2ccc(F)nc2C)nnn1C [Example 969, (S)-8-chloro-6-(((6-fluoro-2-methylpyridin-3-yl)(5-methoxy-1-methyl-1H-1,2,3-triazol-4-yl)methyl)amino)-4-(neopentylamino)quinoline-3-carbonitrile]",–,–,EC50 (TNFα; [3]): 258 nM; IC50 (Human Cot; [4]): 8 nM
"Cn1ccc2c([C@H](Nc3cc(C#N)c4ncc(C#N)c(NCC(C)(C)C(F)(F)F)c4c3)c3cn(C4(C(F)(F)F)CC4)nn3)cccc2c1=O [Example 886, (S)-6-(((2-methyl-1-oxo-1,2-dihydroisoquinolin-5-yl)(1-(1-(trifluoromethyl)-cyclopropyl)-1H-1,2,3-triazol-4-yl)methyl)-amino)-4-((3,3,3-trifluoro-2,2-dimethylpropyl)-amino)quinoline-3,8-dicarbonitrile]",–,–,EC50 (TNFα; [3]): 30 nM; IC50 (Human Cot; [4]): 3 nM
"Cc1ccc([C@H](Nc2cc(Cl)c3ncc(C#N)c(Nc4ccc(F)c(Cl)c4)c3c2)c2cn(COC(=O)C(C)(C)C)nn2)cn1 [Example 273, (S)-(4-(((8-chloro-4-((3-chloro-4-fluorophenyl)amino)-3-cyanoquinolin-6-yl)amino)(6-methylpyridin-3-yl)methyl)-1H-1,2,3-triazol-1-yl)methyl pivalate]",1560 nM,51 nM,–
"CC(C)(C)CNc1c(C#N)cnc2c(Cl)cc(N[C@H](c3cn(C4(C(N)=O)CCC4)nn3)c3cccc4ncsc34)cc12 [Example 463, (S)-1-(4-(benzo[d]thiazol-7-yl((8-chloro-3-cyano-4-(neopentylamino)quinolin-6-yl)amino)methyl)-1H-1,2,3-triazol-1-yl)cyclobutane-1-carboxamide]",63 nM,2 nM,–
"CC(C)(C)CNc1c(C#N)cnc2c(Cl)cc(N[C@H](c3cn(C4(C(F)(F)F)CC4)nn3)c3cncc4ccccc34)cc12 [Example 628, (S)-8-chloro-6-((isoquinolin-4-yl(1-(1-(trifluoromethyl)cyclopropyl)-1H-1,2,3-triazol-4-yl)methyl)amino)-4-(neopentylamino)quinoline-3-carbonitrile]",1000 nM,450 nM,–
"CC(=O)c1cc(N[C@H](c2cn(C3(C(F)F)CC3)nn2)c2ccc(F)nc2C)cc2c(NCC(C)(C)C)c(C#N)cnc12 [Example 981, (S)-8-acetyl-6-(((1-(1-(difluoromethyl)cyclopropyl)-1H-1,2,3-triazol-4-yl)(6-fluoro-2-methylpyridin-3-yl)methyl)amino)-4-(neopentylamino)quinoline-3-carbonitrile]",–,–,EC50 (TNFα; [3]): 20 nM; IC50 (Human Cot; [4]): 4 nM
"N#Cc1cnc2c(Cl)cc(N[C@@H](c3cscn3)c3c[nH]nn3)cc2c1Nc1ccc(F)c(Cl)c1 [Example 276, (S)-8-chloro-4-((3-chloro-4-fluorophenyl)amino)-6-((thiazol-4-yl(1H-1,2,3-triazol-4-yl)methyl)amino)quinoline-3-carbonitrile]",789 nM,6 nM,–
"CC(C)(C)CNc1c(C#N)cnc2c(Cl)cc(N[C@H](c3cn(C4CC4)nn3)c3cncc4cnccc34)cc12 [Example 466, (S)-8-chloro-6-(((1-cyclopropyl-1H-1,2,3-triazol-4-yl)(2,7-naphthyridin-4-yl)methyl)amino)-4-(neopentylamino)-quinoline-3-carbonitrile]",926 nM,28 nM,–
"Cn1ccc2c([C@H](Nc3cc(Cl)c4ncc(C#N)c(NCC(C)(C)C)c4c3)c3cn(C4CCC4)nn3)cccc2c1=O [Example 796, (S)-8-chloro-6-(((1-cyclobutyl-1H-1,2,3-triazol-4-yl)(2-methyl-1-oxo-1,2-dihydroisoquinolin-5-yl)methyl)amino)-4-(neopentylamino)quinoline-3-carbonitrile]",31 nM,2 nM,–
"CC(C)(C)CNc1c(C#N)cnc2c(Cl)cc(N[C@H](c3cn(C4(C(F)(F)F)CC4)nn3)c3cccc4c(=O)n(CC(F)(F)F)ccc34)cc12 [Example 771, (S)-8-chloro-4-(neopentylamino)-6-(((1-oxo-2-(2,2,2-trifluoroethyl)-1,2-dihydroisoquinolin-5-yl)(1-(1-(trifluoromethyl)-cyclopropyl)-1H-1,2,3-triazol-4-yl)methyl)amino)quinoline-3-carbonitrile]",293 nM,4 nM,–
